ChEMBL document CHEMBL3045547, “Synthesis, characterization and antimicrobial screening of hybrid molecules containing benzimidazole-pyrazole and pyridine nucleus” (2012)
Values after ≈ are worked out from the molar mass of the structure shown.

Experiments:
Type in all cases: functional
[1] = test system: Staphylococcus aureus; assay: Antimicrobial activity against Staphylococcus aureus MTCC 96 after 24 to 48 hr by serial broth dilution method
[2] = test system: Candida albicans; assay: Antimicrobial activity against Candida albicans MTCC 227 after 72 hr by serial broth dilution method; details: MTCC 227, 72 h
[3] = test system: Escherichia coli; assay: Antimicrobial activity against Escherichia coli MTCC 443 after 24 to 48 hr by serial broth dilution method
[4] = test system: Pseudomonas aeruginosa; assay: Antimicrobial activity against Pseudomonas aeruginosa MTCC 1688 after 24 to 48 hr by serial broth dilution method
[5] = test system: Aspergillus niger; assay: Antimicrobial activity against Aspergillus niger MTCC 282 serial after 72 hr by broth dilution method; details: MTCC 282, 72 h
[6] = test system: Aspergillus clavatus; assay: Antimicrobial activity against Aspergillus clavatus MTCC 1323 after 72 hr by serial broth dilution method; details: MTCC 1323, 72 h
[7] = test system: Streptococcus pyogenes; assay: Antimicrobial activity against Streptococcus pyogenes MTCC 442 after 24 to 48 hr by serial broth dilution method

Row | Structure (SMILES) | MIC [1] | MIC [2] | MIC [3] | MIC [4] | MIC [5] | MIC [6] | MIC [7]
1 | Cc1ccc(C2CC(c3nc4ccccc4[nH]3)=NN2C(=O)c2ccncc2)cc1 (stereo not given) | 100 µg/mL (≈ 262 µM) | 1000 µg/mL (≈ 2620 µM) | 25 µg/mL (≈ 65.5 µM) | 50 µg/mL (≈ 131 µM) | 1000 µg/mL (≈ 2620 µM) | 1000 µg/mL (≈ 2620 µM) | 250 µg/mL (≈ 655 µM)
2 | O=C(c1ccncc1)N1N=C(c2nc3ccccc3[nH]2)CC1c1ccc(Cl)cc1 (stereo not given) | 250 µg/mL (≈ 622 µM) | 1000 µg/mL (≈ 2490 µM) | 500 µg/mL (≈ 1240 µM) | 500 µg/mL (≈ 1240 µM) | 1000 µg/mL (≈ 2490 µM) | 1000 µg/mL (≈ 2490 µM) | 250 µg/mL (≈ 622 µM)
3 | O=C(c1ccncc1)N1N=C(c2nc3ccccc3[nH]2)CC1c1ccc(Br)cc1 (stereo not given) | 250 µg/mL (≈ 560 µM) | 1000 µg/mL (≈ 2240 µM) | 250 µg/mL (≈ 560 µM) | 250 µg/mL (≈ 560 µM) | 1000 µg/mL (≈ 2240 µM) | 1000 µg/mL (≈ 2240 µM) | 250 µg/mL (≈ 560 µM)
4 | O=C(c1ccncc1)N1N=C(c2nc3ccccc3[nH]2)CC1c1ccc([N+](=O)[O-])cc1 (stereo not given) | 500 µg/mL (≈ 1210 µM) | 500 µg/mL (≈ 1210 µM) | 50 µg/mL (≈ 121 µM) | 500 µg/mL (≈ 1210 µM) | 200 µg/mL (≈ 485 µM) | 100 µg/mL (≈ 242 µM) | 500 µg/mL (≈ 1210 µM)
5 | O=C(c1ccncc1)N1N=C(c2nc3ccccc3[nH]2)CC1c1ccccc1 (stereo not given) | 250 µg/mL (≈ 680 µM) | 250 µg/mL (≈ 680 µM) | 250 µg/mL (≈ 680 µM) | 500 µg/mL (≈ 1360 µM) | 200 µg/mL (≈ 544 µM) | 500 µg/mL (≈ 1360 µM) | 100 µg/mL (≈ 272 µM)
6 | O=C(c1ccncc1)N1N=C(c2nc3ccccc3[nH]2)CC1c1ccccc1Cl (stereo not given) | 250 µg/mL (≈ 622 µM) | 500 µg/mL (≈ 1240 µM) | 100 µg/mL (≈ 249 µM) | 500 µg/mL (≈ 1240 µM) | 1000 µg/mL (≈ 2490 µM) | 1000 µg/mL (≈ 2490 µM) | 500 µg/mL (≈ 1240 µM)
7 | O=C(c1ccncc1)N1N=C(c2nc3ccccc3[nH]2)CC1c1cccc(O)c1 (stereo not given) | 100 µg/mL (≈ 261 µM) | 500 µg/mL (≈ 1300 µM) | 100 µg/mL (≈ 261 µM) | 25 µg/mL (≈ 65.2 µM) | 100 µg/mL (≈ 261 µM) | 500 µg/mL (≈ 1300 µM) | 50 µg/mL (≈ 130 µM)
8 | O=C(c1ccncc1)N1N=C(c2nc3ccccc3[nH]2)CC1c1cccc([N+](=O)[O-])c1 (stereo not given) | 500 µg/mL (≈ 1210 µM) | 500 µg/mL (≈ 1210 µM) | 100 µg/mL (≈ 242 µM) | 100 µg/mL (≈ 242 µM) | 200 µg/mL (≈ 485 µM) | 100 µg/mL (≈ 242 µM) | 500 µg/mL (≈ 1210 µM)
9 | O=C(c1ccncc1)N1N=C(c2nc3ccccc3[nH]2)CC1c1ccc(O)cc1 (stereo not given) | 250 µg/mL (≈ 652 µM) | 100 µg/mL (≈ 261 µM) | 25 µg/mL (≈ 65.2 µM) | 250 µg/mL (≈ 652 µM) | 1000 µg/mL (≈ 2610 µM) | 1000 µg/mL (≈ 2610 µM) | 250 µg/mL (≈ 652 µM)
10 | CC1(C)S[C@@H]2[C@H](NC(=O)[C@H](N)c3ccccc3)C(=O)N2[C@H]1C(=O)O [AMPICILLIN] | 250 µg/mL (≈ 715 µM) |  | 100 µg/mL (≈ 286 µM) | 100 µg/mL (≈ 286 µM) |  |  | 100 µg/mL (≈ 286 µM)

Continued by falling MIC [2], values first:

Row | MIC [1] | MIC [2] | MIC [3] | MIC [4] | MIC [5] | MIC [6] | MIC [7] | Structure (SMILES)
11 | 250 µg/mL (≈ 609 µM) | 1000 µg/mL (≈ 2440 µM) | 250 µg/mL (≈ 609 µM) | 100 µg/mL (≈ 244 µM) | 25 µg/mL (≈ 60.9 µM) | 100 µg/mL (≈ 244 µM) | 250 µg/mL (≈ 609 µM) | CN(C)c1ccc(C2CC(c3nc4ccccc4[nH]3)=NN2C(=O)c2ccncc2)cc1 (stereo not given)
12 | 125 µg/mL (≈ 315 µM) | 500 µg/mL (≈ 1260 µM) | 100 µg/mL (≈ 252 µM) | 50 µg/mL (≈ 126 µM) | 200 µg/mL (≈ 503 µM) | 500 µg/mL (≈ 1260 µM) | 200 µg/mL (≈ 503 µM) | COc1ccc(C2CC(c3nc4ccccc4[nH]3)=NN2C(=O)c2ccncc2)cc1 (stereo not given)
13 | 500 µg/mL (≈ 1300 µM) | 500 µg/mL (≈ 1300 µM) | 500 µg/mL (≈ 1300 µM) | 100 µg/mL (≈ 259 µM) | 200 µg/mL (≈ 519 µM) | 500 µg/mL (≈ 1300 µM) | 100 µg/mL (≈ 259 µM) | O=C(c1ccncc1)N1N=C(c2nc3ccccc3[nH]2)CC1c1ccc(F)cc1 (stereo not given)
14 | 100 µg/mL (≈ 242 µM) | 500 µg/mL (≈ 1210 µM) | 250 µg/mL (≈ 605 µM) | 500 µg/mL (≈ 1210 µM) | 100 µg/mL (≈ 242 µM) | 200 µg/mL (≈ 484 µM) | 100 µg/mL (≈ 242 µM) | COc1cc(C2CC(c3nc4ccccc4[nH]3)=NN2C(=O)c2ccncc2)ccc1O (stereo not given)
15 |  | 500 µg/mL (≈ 1420 µM) |  |  | 100 µg/mL (≈ 283 µM) | 100 µg/mL (≈ 283 µM) |  | COC1=CC(=O)C[C@@H](C)[C@]12Oc1c(Cl)c(OC)cc(OC)c1C2=O [GRISEOFULVIN]
16 | 125 µg/mL (≈ 326 µM) | 100 µg/mL (≈ 261 µM) | 500 µg/mL (≈ 1300 µM) | 100 µg/mL (≈ 261 µM) | 1000 µg/mL (≈ 2610 µM) | 100 µg/mL (≈ 261 µM) | 100 µg/mL (≈ 261 µM) | O=C(c1ccncc1)N1N=C(c2nc3ccccc3[nH]2)CC1c1ccccc1O (stereo not given)
